In brackets after ≈: the same amount, converted by molar mass.
Columns and labels:
[1] = Equilibrium solubility in FaSSIF; format: physicochemical; conditions: thermodynamic from solid; FaSSIF pH 6.5, shaken 24 hours
Experimental: The compound powder was weighed into a volumetric flask, 450 μL of pH 6.5 FaSSIF solution was added to obtain a supersaturated suspension, the samples were vortexed for at least 2 minutes, and the volumetric flasks were shaken on a vibrating screen at 800 rpm for 24 hours, and then centrifuged at 4000 rpm for 20 minutes. The compressed filtrate was added to a HPLC system, and the concentrations were calculated by a standard curve method.

[2] = Metabolic stability in human liver microsomes; format: in vitro ADME
Experimental: (§1) Drug-like Properties: Concepts, Structure Design and Methods: from ADME to Toxicity Optimization. […] Screen. […] After incubation for appropriate time (such as 5, 10, 20, 30 and 60 minutes), samples were collected, and an appropriate termination solution (glacial acetonitrile containing 200 ng/mL tolbutamide and 200 ng/mL labetalol (i.e. acetonitrile at 4° C.)) was added to stop the reaction. Sample treatment (n=1): each appropriate sample was added, vortexed and centrifuged at high speed. The supernatants were collected, and detected the substrate by HPLC-MS/MS. The peak area at the 0 min was set as 100%. The peak areas at other time points were converted to percentages of the remaining amount. The natural logarithms of the percentage of remaining amount at each time point was plotted against the incubation time, and the slope (−k) was calculated. Then, Clint (μL/min/mg) and half-life (T½, min) of the compounds were calculated following the equation: Inherent clearance rate (Clint)=(k*Volume of incubation solution)/Mass of liver microsomes.

[3] = Metabolic stability in mouse liver microsomes; format: in vitro ADME, CD-1 mice
Experimental: as §1

- solubility at 24 h [1]: 1140 µg/mL (≈ 2880 µM)
- half-life at 1 μM ([2]; 1 μM compound): 1.97 h
- Remain % (T = 60 min) ([2]; T = 60 min): 65.0%
- microsomal CLint at 1 μM ([2]; read-out: CLint(mic)): 11.7 µL/min/mg
- half-life at 1 μM ([3]; CD-1, 1 μM compound): 0.972 h
- microsomal CLint at 1 μM ([3]; CD-1, read-out: CLint(mic)): 23.8 µL/min/mg
- Remain % (T = 60 min) ([3]; T = 60 min): 44.4%
SMILES: C[C@@H]1COCCN1c1cc(N2CC3CCC(C2)O3)nc2c(-c3cc[nH]n3)cnn12 [Example 1, 3-(7-((R)-3-methylmorpholino)-3-(1H-pyrazol-3-yl)pyrazolo[1,5-a]pyrimidin-5-yl)-8-oxa-3-azabicyclo[3.2.1]octane]

From US20240294550A1, “8-OXA-3-AZABICYCLO[3.2.1]OCTANE COMPOUNDS OR SALT THEREOF, AND PREPARATION METHOD AND USE THEREOF” (LITTDD MEDICINES LTD, priority 2021, published 2024)
